# Reference: patent US11970583B2, “Therapeutic dendrimer” (Starpharma Pty Ltd., priority 2018, dated 2024)
# Entries after “also recorded” stand apart in the source; their conditions may differ.
# Tests used:
# [1] = Stability in solution (precipitation); type: physicochemical; conditions: compared with SPL9049
# [2] = 2.5 mg/kg
# [3] = system: CAPAN-1 tumour xenografts; assay: CAPAN-1 mouse xenograft pancreatic cancer model study; type: in vivo, Female NOD-SCID Interleukin-2 receptor gamma chain null mice
# Experimental: Gemcitabine and ABRAXANE® were obtained from the Peter MacCallum Cancer Centre pharmacy, and were dissolved in saline solution immediately prior to dosing.
# Female NOD-SCID Interleukin-2 receptor gamma chain null mice (aged 9 weeks) were inoculated subcutaneously on the flank with 5×10^6 CAPAN-1 cells in PBS:Matrigel (1:1).
# Tumour growth data was analysed in GraphPad Prism for ANOVA followed by Dunnett's post ad-hoc test.
# [4] = system: progressive metastatic disease; assay: Phase 1 dose escalation study: treatment response and biomarkers; type: in vivo, human patients
# Experimental: Biomarker, PK and other data were collected from patients enrolled in the study. Patients were dosed every 3 weeks, over 1 hour using an infusion pump. Patients all had progressive metastatic disease. The patient population was heavily pre-treated with a range of chemotherapeutic agents as described in the below table.
# [5] = system: MDA-MB-231 tumour xenografts
# Experimental: Cabazitaxel was prepared fresh for each dosing day.
# Tumour volumes were determined twice weekly and were expressed as mean tumour volume (±SEM).
# The data represent the mean percent weight change from baseline (Day 1) for each group; bars SEM.
# [6] = Toxicology study in rats at 1 mg/kg (neutropenia); type: in vivo
# Text: References to amounts dosed in mg/kg for the dendrimeric compound are to the amounts of Cabazitaxel that may theoretically be released by the dendrimer.
# [7] = Single-dose toxicokinetic study, intravenous bolus, free (unconjugated) cabazitaxel in plasma; type: in vivo, Sprague Dawley Crl:CD (SD) rats; conditions: males; for Cmax free (unconjugated) Cabazitaxel: i.v. bolus; for % JEVTANA ® brand cabazitaxel dose: relative to JEVTANA 2.5 mg/kg
# Experimental: A single-dose toxicokinetic study of SPL-9048 and SPL-9005 was carried out by intravenous bolus injection in rats with a 21-day observation period. The control, 0.9% sodium chloride, was prepared and dispensed on the day of dosing. SPL-9048 and SPL-9005 were prepared at appropriate concentrations to meet dose level requirements. The dosing formulations were prepared and dispensed on each day of dosing and were used within 3 hours of preparation. The required amount of test article was weighed out and dissolved in a suitable volume of normal saline with gentle swirling and the pH was recorded. Cabazitaxel (JEVTANA® brand cabazitaxel) was prepared at appropriate concentration to meet dose level requirements. […] This stock solution was further diluted with normal saline to produce the final dosing concentration within 30 minutes.
# The animals used were male and female Sprague Dawley Crl:CD (SD) rats. The animals were 10 to 14 weeks old and weighed between 327 and 565 g for males and 212 and 316 g for females at initiation of dosing. Animals were acclimated to their designated housing for at least 4 days before the first day of dosing. Animals were assigned to groups by a stratified randomization scheme designed to achieve similar group mean body weights. Males and females were randomised separately. Animals in poor health or at extremes of body weight ranges were not assigned to groups. PMI Nutrition International Certified Rodent Chow No. 5CR4 was provided ad libitum throughout the study except during designated procedures. The same diet in meal form was also provided, as needed. Municipal tap water, after treatment by reverse osmosis and ultraviolet irradiation, was freely available to each animal via an automatic watering system, except during designated procedures. Water bottles were also provided, as required. Animal were socially housed for psychological/environmental enrichment and were provided with items such as a chewing object, except when interrupted by study procedures/activities. Veterinary care was available throughout the course of the study.
# The test and control articles were administered to the appropriate animals at the amounts indicated in the table below via a single intravenous (slow bolus) injection to the tail vein.
# The dose volume for each animal was based on the most recent body weight measurement. The animals were temporarily restrained for dose administration and were not sedated. The doses were given using a syringe with attached needle. The first day of dosing for each group was designated as Day 1. The comparator dosing formulation (JEVTANA® brand Cabazitaxel) and test articles were maintained between 15 and 30° C. during dosing.
# Toxicokinetic parameters were estimated using Phoenix pharmacokinetic software. A non-compartmental approach consistent with the intravenous route of administration was used for parameter estimation.
# DU145 tumour xenografts = assay: DU145 mouse xenograft prostate cancer model study; type: in vivo, Male SCID mice
# Experimental: Cabazitaxel was prepared fresh for each dosing day. […] Dosing solutions at 4.5 and 5.5 mg/mL were prepared from this working stock immediately prior to injection.
# Male SCID mice (age 7-8) weeks were inoculated subcutaneously in the flank with 3×10^6 DU145 cells in PBS:Matrigel (1:1). Mice were weighed and tumours measured 2-3 times weekly using electronic callipers. […] Treatment groups were saline, Cabazitaxel (9 and 11 mg/kg), SPL-9048 (9 mg/kg) and SPL-9005 (25 mg/kg). […] The experiment was ended on Day 126, or earlier if an ethical endpoint was met. Survival curves were analysed using the Mantel Cox log rank test.
# Tumour volumes were determined 2-3 times weekly and are expressed as mean tumour volume (±SEM).
# Graphs are shown for each group until fewer than 6 animals remained in each group.
substance,measurement,setting,value
BHALys[Lys]32[α-DGA-Cabazitaxel]32†[ε-PEG˜2100]32‡ [SPL9048],stability in solution (e.g. with regard to precipitation),[1],increased stability in solution
same,toxicity overall,[2],Reduced toxicity
same,Tumour Growth inhibition (%),"[3]; Day 37, dosing days 1, 8, 15, Gemcitabine 80 mg/kg i.p., ABRAXANE 40 mg/kg i.v., SPL9048 […] i.v.",107%
same,tumour growth inhibition compared with ABRAXANE,[3]; […] i.v. vs 40 mg/kg i.v.,more effectively than ABRAXANE®
same,"anti-tumour efficacy (mean tumour volume, FIG. 7)","[3]; dosing days 1, 8, 15, study to day 107",complete regression of CAPAN-1 tumours for the duration of the study
same,dose at which biomarker response occurs,[4]; FIGS. 8 and 9,≥ 10 mg/m^2
same,CA-125 (FIG. 9),"[4]; ovarian cancer, after two doses at 15 mg/m^2",declining
same,Stable disease,"[4]; patient: digital papillary adenocarcinoma (stage IV), 2 to 15 mg/m^2, 12 cycles",Stable disease > 33 weeks.
same,CA-125 decline,"[4]; patient: ovarian (stage IV), 15 to 20 mg/m^2, 7 cycles, over 15 weeks",CA-125 declining (60%) from 652
same,CA-125 after decline,"[4]; patient: ovarian (stage IV), from 652, over 15 weeks, after one cycle at 15 mg/m^2",to 255 kU/L (over 15 weeks) after
same,CA 19-9 decline,"[4]; patient: pancreatic adenocarcinoma (stage IV), 20 mg/m^2, 3 cycles, after one cycle",CA 19-9 declining (28%) from 177
same,CA 19-9 after decline,"[4]; patient: pancreatic adenocarcinoma (stage IV), 20 mg/m^2, from 177 baseline, after one cycle",baseline to 127 kU/L after one
same,CA 19-9,"[4]; patient: pancreatic adenocarcinoma, 20 mg/m^2, 1 cycle","Stable CA 19-9, abdominal pain"
same,abdominal pain and opioid treatment,"[4]; patient: pancreatic adenocarcinoma, 20 mg/m^2, after one cycle",subsided and cessation of opioid
same,Stable disease,"[4]; patient: prostate (stage III), 5 to 20 mg/m^2, 13 cycles",Stable disease > 35 weeks.
same,PSA after decline,"[4]; patient: prostate (stage III), 5 to 20 mg/m^2, declined from 106 over 12 weeks",PSA declined from 106 to 25 μg/L
same,Stable disease,"[4]; patient: prostate, 20 mg/m^2, 5 cycles",Stable disease > 6 weeks
same,PSA after decline,"[4]; patient: prostate, 20 mg/m^2, 5 cycles, from 262, in 3 weeks after three cycles",86 μg/L (in 3 weeks) after three
same,PSA stability,"[4]; patient: prostate, 5 cycles, at 5 mg/m^2",Preliminary signs of PSA stability
same,PSA (FIG. 8),"[4]; prostate cancer patients, multiple doses at 10 mg/m^2, continuing at 20 mg/m^2",declining
same,"tolerability (body weight, FIG. 4)",[5]; 9 and 10 mg/kg,overall well tolerated
same,"antitumour efficacy (mean tumour volume, FIG. 3)","[5]; 9 and 10 mg/kg i.v. days 1, 8 and 15",complete tumour regression
same,survival,[5]; both doses (9 and 10 mg/kg),significantly extended survival beyond that of Cabazitaxel
same,rebound after neutropenia at day 14,[6],virtually no rebound
same,"neutropenia (FIG. 6), day 7 in particular",[6]; male and female rats,lesser/no dip in values
same,AUC0-t free Cabazitaxel,[7]; 1 mg/kg drug eq.,445.00 ng·h/mL
same,Cmax free (unconjugated) Cabazitaxel,[7]; 1 mg/kg drug eq.,14.13 ng/mL
same,% JEVTANA ® brand cabazitaxel dose,[7]; 1 mg/kg drug eq.,65%
same,AUC0-t free Cabazitaxel,[7]; 2.5 mg/kg drug eq.,1239.99 ng·h/mL
same,Cmax free (unconjugated) Cabazitaxel,[7]; 2.5 mg/kg drug eq.,36.89 ng/mL
same,% JEVTANA ® brand cabazitaxel dose,[7]; 2.5 mg/kg drug eq.,182%
same,"antitumour efficacy (mean tumour volume, FIG. 1)","DU145 tumour xenografts; 9 mg/kg i.v. Days 1, 8 and 15, to Day 126",complete tumour regression with no regrowth observed in any of the animals on Day 126
same,"tolerability (body weight, FIG. 2)","DU145 tumour xenografts; male mice, 9 mg/kg i.v. Days 1, 8, 15, 9 mg/kg",overall well tolerated; also recorded: better tolerated than SPL9005
same,max weight loss,"DU145 tumour xenografts; male mice, 9 mg/kg, on Day 20",−10%
